According to US20060156419A1, “Mouse model for autoimmune disorders” (THE WISTAR INSTITUTE of ANATOMY and BIOLOGY, priority 2002, published 2006):
Read-outs that look alike come from different tables or passages of the source.

Experiments:
TS1(SW) T cell receptor [1] = assay: Proliferation of TS1(SW) CD4+ T cells in response to graded doses of peptide; format: cell-based, mouse; details: for EC50: read-out: half maximal stimulation
TS1 T cell receptor = assay: Proliferation of TS1 CD4+ T cells in response to graded doses of peptide; format: cell-based, mouse
TS1(SW) T cell receptor [2] = details: Jordan et al, 2001; cited from earlier work

| Sequence | EC50 (TS1(SW) T cell receptor [1]; CD4+ T cells of TS1(SW) TCR transgenic mice, proliferation, FIG. 7) [nM] | binding affinity of TS1(SW) T cell receptor (in words) (TS1(SW) T cell receptor [1]; FIG. 7B) | binding affinity of TS1 T cell receptor (in words) (TS1 T cell receptor; FIG. 7A) | affinity of TS1(SW) TCR for S1 peptide, fold lower than that of the TS1 TCR (TS1(SW) T cell receptor [2]) | affinity for the TS1(SW) TCR, fold lower than for S1(SW) peptide (TS1(SW) T cell receptor [1]) | binding affinity of TS1(SW) T cell receptor (in words) (TS1(SW) T cell receptor [1]) | fold higher concentrations of S1 peptide needed to reach half-maximal stimulation (TS1(SW) T cell receptor [1]) | EC50 (TS1(SW) T cell receptor [1]) [nM] | binding affinity of TS1 T cell receptor (in words) (TS1 T cell receptor) |
| --- | --- | --- | --- | --- | --- | --- | --- | --- | --- |
| SFEKFEIFPKT [S1(SW) peptide] | ~50 | high affinity | low affinity | – | – | – | – | – | – |
| SFERFEIFPKE [S1 peptide] | – | – | – | approximately 100 fold | about 100 fold | low affinity | around 30 fold | > 1000 | high affinity |
